Data: patent publication US9561259B2, “Cyclosporin analogs” (priority 2010, dated 2017)

How the values were obtained:
[1] = tested on: Spleen cells from C57BL/6 (responder) and BALB/c (stimulator); assay: Mixed Lymphocyte Reaction (MLR) assay; type: cell-based, mice; details: five days, 3H-thymidine incorporation
Description: The MLR assay is another means of estimating the immunosuppressive potential of test compounds. Female C57BL/6 and BALB/c mice, 6-8 weeks of age, were obtained from the Frederick Cancer Research and Development Center of the National Cancer Institute (Frederick, Md.). Spleens were harvested aseptically from all mice and single cell suspensions were prepared by disaggregating the cells with frosted glass slides, allowing the debris to settle, and washing the cells twice with complete medium. Complete medium consisted of RPMI 1640 medium containing 25 mM HEPES buffer (HyClone, Logan, Utah) supplemented with 10% heat-inactivated fetal bovine serum (FBS; Atlanta Biologicals, Lawrenceville, Ga.), 100 μg/mL streptomycin, 100 U/mL penicillin G, 0.25 μg/mL amphotericin B (HyClone), 2 mM L-glutamine dipeptide (HyClone), and 2×10^−5 M 2-mercaptoethanol (Sigma). Cells were washed twice and resuspended in complete medium. Cell counts were performed using a Beckman Coulter Z-1 particle counter (Fullerton, Calif.). Cell viability was determined by propidium iodide (PI) staining using an Accuri C6 flow cytometer (Ann Arbor, Mich.).
Spleen cells from C57BL/6 (H-2^b) and BALB/c (H-2^d) were used as responder (R) and stimulator (S) cells, respectively. Cells were plated in triplicate in 96-well flat microtiter plates (Costar, Cambridge, Mass.) such that each well contained 2×10^5 R and 8×10^5 S cells. Cultures were incubated in the absence or presence of various concentrations of Cs A, test compounds, or medium at 37° C. in humidified 5% CO2 for five days, pulsed with ^3H-thymidine (^3H-TdR) for the final 16 hours of incubation, and harvested using a Brandel 96-well cell harvester (Gaithersburg, Md.). Proliferation was measured by counting the radioactivity on filter mats in a Wallac 1450 Microbeta TriLux scintillation counter (Turku, Finland). […] These control cultures were incubated for 3 days under the same conditions as those described for the MLR; lymphoproliferation was determined in the same manner as described above.

[2] = Epimerization in MeOH at 50° C. (500 MHz NMR)
Description: The proton attached to the sarcosine center (adjacent to the sulfur atom) appears at ˜δ 5.9 in the R-isomer whilst in the S-isomer it moves downfield to ˜δ6.5.

Substance | IC50 [1] | Epimerization (%) ([2]; time 0 days) | Epimerization (%) ([2]; time 30 days) | Epimerization (%) ([2]; time 35 days) | Epimerization (%) ([2]; time 6 days)
[(R)-(3-(4-methyl-piperazin-1-yl)-propylthio)-Sar]^3 Cyclosporin A [Example 3] | 3300 nM | 0% | 2% | – | –
[(R)-(3-ethylisopropylamino-propylthio)-Sar]^3 Cyclosporin A [Example 2] | 2800 nM | 0% | – | 0% | –
[(R)-(3-morpholin-4-yl-propylthio)-Sar]^3 Cyclosporin A [Example 1] | 3000 nM | 0% | 0.2% | – | 0%
